According to patent US4948807A, “Phenyl carbamates” (priority 1985, dated 1990):
Read-outs that look alike come from different tables or passages of the source.

How the values were obtained:
[1] = system: acetylcholinesterase; details: compared with the monoquaternary molecules; cited from earlier work
[2] = cited from earlier work; for penetration of the central nervous system: in vivo; for absorption from the gastro-intestinal tract: oral
[3] = in vivo; cited from earlier work
[4] = biological target: T1, acetylcholinesterase (Mus musculus, UniProt P21836); experiment: biochemical; type: biochemical
T1 construct: A solubilized preparation of acetylcholinesterase was prepared from mouse whole brain (minus cerebellum); from tissue; host or cells: mouse whole brain (minus cerebellum), membrane pellet solubilized with 1% Triton
T1 sequence (P21836 32-614): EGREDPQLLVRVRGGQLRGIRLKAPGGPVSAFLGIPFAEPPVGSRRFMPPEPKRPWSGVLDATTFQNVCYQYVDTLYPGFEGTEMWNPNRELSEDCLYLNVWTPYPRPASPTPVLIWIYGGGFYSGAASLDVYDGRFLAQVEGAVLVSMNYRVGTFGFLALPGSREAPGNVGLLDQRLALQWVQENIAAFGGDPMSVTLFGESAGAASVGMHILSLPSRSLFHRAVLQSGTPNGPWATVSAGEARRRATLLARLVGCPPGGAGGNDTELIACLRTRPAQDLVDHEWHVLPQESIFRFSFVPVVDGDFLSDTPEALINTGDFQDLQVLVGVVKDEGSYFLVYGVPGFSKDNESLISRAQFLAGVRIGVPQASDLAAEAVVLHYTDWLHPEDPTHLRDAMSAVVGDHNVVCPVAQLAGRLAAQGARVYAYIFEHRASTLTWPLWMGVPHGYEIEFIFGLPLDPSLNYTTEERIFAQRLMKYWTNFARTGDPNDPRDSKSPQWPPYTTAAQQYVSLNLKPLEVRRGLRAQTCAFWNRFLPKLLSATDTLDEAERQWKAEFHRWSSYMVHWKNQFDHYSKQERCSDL
Experimental: A solubilized preparation of acetylcholinesterase was prepared from mouse whole brain (minus cerebellum). The brain was homogenized with (100 mg/ml) phosphate buffer; pH 8.0, centrifuged, the supernatant discarded, and the pellet mixed with a similar volume as above of buffer pH 8.0 plus 1% Triton; mixed, centrifuged and the supernatant which contained most of the solubilized enzyme, was used for the subsequent determinations of anticholinesterase activity.
The activity of the enzyme (rate of hydrolysis of substrate, acetylthiocholine) was measured using at least 4 different concentrations of substrate, and at least 3 different concentrations of each inhibitor. The enzyme was incubated with inhibitor for periods ranging for 2-180 mins. at 37° C., substrate was then added, and its rate of hydrolysis measured by the spectrophotometric method of Ellman et al. (1961).

[5] = eye drops; cited from earlier work
[6] = system: brain acetylcholinesterase; details: for Relative potency to physostigmine after oral administration / % cholinesterase inhibition 3 hours after s.c. administration / Relative potency to physostigmine after subcut. (s.c.) administration: mouse brain; for Relative potency to physostigmine after oral administration / Relative potency to physostigmine after subcut. (s.c.) administration: physostigmine = 100
Experimental: The effect of each compound on brain acetylcholinesterase in vivo was measured, after subcutaneous or oral administration to mice. Animals were sacrificed, at different times ranging from 0.25-8 hours after drug administration. The brain was rapidly removed, and the enzyme acetylcholinesterase extracted and solubilized with 0.1% Triton, and its ability to hydrolyse acetylthiocholine assessed as described above (in vitro experiments), in comparison with the enzyme removed from mice injected with normal saline.

[7] = in vivo; details: mouse, in vivo
Experimental: Mice were given one of at least three different doses of each compound, orally or subcutaneously, a minimum of 10 mice allotted to each dose. The number of animals which died at each dose within 3 hours was determined.
This experiment was repeated after the animals had been pretreated with atropine sulphate, which blocks both peripheral and central muscarinic receptors.
What is important is the safety of the drugs and the presence and severity of side effects that may occur at therapeutic doses. A commonly-used measure of drug safety is the therapeutic index--or LD50 /ED50 [formula]
It is assumed that the therapeutic effect of these anticholinesterase agents results from an elevation of brain cholinergic activity. This in turn, should be related to the degree of inhibition of acetylcholinesterase. For the purpose of the computation of the denominator of the therapeutic ratio, there is used the dose of drug that inhibits the activity of acetylcholinesterase by 50%. […] The numerator is the dose found to kill 50% of the animals within […] of a subcutaneous injection.

[8] = system: acetylcholinesterase in the cerebro-spinal fluid; details: patients with Alzheimer's disease; Thal et al. 1983; cited from earlier work
[9] = in vivo; cited from earlier work; remark: listed apart in the source
[10] = system: Huntingdon's chorea; details: injections; cited from earlier work
[11] = system: respiratory depressant effects of morphine; type: in vivo; details: rabbits
Experimental: Different doses of the carbamate compounds were injected intravenously with morphine in rabbits Respiration rate, arterial blood gas tensions and pH were monitored continuously before and after drug administration for 4-5 hours. In another series of experiments the effect of the anticholinesterase drugs was assessed on the analgesic effect of opiates in rabbits after application of a nociceptive stimulus, i.e. electrical stimulation of the sciatic nerve.

[12] = system: tardive dyskinesias; details: injected intravenously; cited from earlier work
[13] = incubation of enzyme with inhibitor, 37° C.
[14] = Ratio whose head is drawing 10 (Table 3; oral LD50 compared with s.c. LD50), mice, oral versus s.c.
[15] = sc, Therapeutic ratio LD50/ED50 s.c., mice, ED50 = dose inhibiting brain acetylcholinesterase by 50%

CN(CCCCCCCCCCN(C)C(=O)Oc1cccc([N+](C)(C)C)c1)C(=O)Oc1cccc([N+](C)(C)C)c1 [Demacarium]
selectivity for acetylcholinesterase over butyrylcholinesterase [1]: more selective inhibitors of acetylcholinesterase than butyrylcholinesterase

CC[N+](CC)(CCNC(=O)C(=O)NCC[N+](CC)(CC)Cc1ccccc1Cl)Cc1ccccc1Cl [Ambenonium]
selectivity for acetylcholinesterase over butyrylcholinesterase [1]: more selective inhibitors of acetylcholinesterase than butyrylcholinesterase

CN(C)C(=O)Oc1ccc[n+](C)c1 [pyridostigmine]
penetration of the central nervous system [2]: do not penetrate the central nervous system to any significant extent
absorption from the gastro-intestinal tract [2]: only poorly absorbed from the gastro-intestinal tract

CNC(=O)Oc1cccc(C(C)N(C)C)c1 (centres unmarked) [Miotine, reference compound]
insecticidal activity [3]: claimed to be an insecticide
IC50 [4]: 13 nM
Time of peak activity [4, 13]: 30 min
myopic activity [5]: myopic agent
Relative potency to physostigmine after oral administration [6]: 300
% cholinesterase inhibition 3 hours after s.c. administration [6]: 5%
Relative potency to physostigmine after subcut. (s.c.) administration [6]: 100
selectivity ratio [7, 14]: 1.2
LD50 at 3 h ([7]; sc): 4.5 µmol/kg
selectivity ratio [7, 15]: 4.9

CNC(=O)Oc1ccc2c(c1)[C@]1(C)CCN(C)[C@@H]1N2C [Physostigmine, reference compound]
block of acetylcholinesterase in cerebro-spinal fluid at dose giving maximum improvement in short term memory [8]: 50%
penetration of the central nervous system [2]: readily enters the brain
absorption from the gastro-intestinal tract [2]: irregular and unpredictable
half-life [9]: 20 to 40 min
benefit in Huntingdon's chorea [10]: some benefit
duration of antagonism of the respiratory depressant effect of morphine ([11]; 0.1-0.2 mg/kg): 30 to 60 min
muscle fasciculations ([11]; with morphine): fasciculations are marked at the higher dose
IC50 [4]: 11 nM
Time of peak activity [4]: 30 min
duration of significant brain enzyme inhibition (>30%) ([6]; mouse, in vivo): less than 2 hours
LD50 at 3 h ([7]; sc): 3 µmol/kg
improvement of tardive dyskinesias [12]: significant but short lived improvement in a proportion of patients

CN(C)C(=O)Oc1cccc([N+](C)(C)C)c1 [neostigmine]
penetration of the central nervous system [2]: do not penetrate the central nervous system to any significant extent
absorption from the gastro-intestinal tract [2]: only poorly absorbed from the gastro-intestinal tract

CCCNC(=O)Oc1cccc(C(C)N(C)C)c1 (centres unmarked) [RA15, N-propyl-3[1-(dimethylamino)ethyl]phenyl carbamate]
duration of significant antagonism of the respiratory depressant effects of morphine ([11]; depending on drug and dose): 3 to 5 h
IC50 [4]: 110 nM
Time of peak activity [4, 13]: 120 min
duration of significant brain enzyme inhibition (>30%) ([6]; at ED50 dose): more than 3 hours
relative in vivo activity compared to physostigmine versus in vitro data ([6]; comparison of Table 1 with Table 2): relatively more active in vivo compared to physostigmine than one would expect from the in vitro data
Relative potency to physostigmine after oral administration [6]: 32
% cholinesterase inhibition 3 hours after s.c. administration [6]: 37%
Relative potency to physostigmine after subcut. (s.c.) administration [6]: 33
duration of brain acetylcholinesterase inhibition compared with physostigmine or miotine ([6]; parenteral administration, in words): significantly longer duration
selectivity ratio ([7]; Degree of protection afforded by pretreatment with atropine, ratio of LD50 after pretreatment with atropine sulphate 5 mg/kg to LD50 of drug alone): 4.1
selectivity ratio [7, 14]: 4.5
LD50 at 3 h ([7]; sc): 31 µmol/kg
selectivity ratio [7, 15]: 11.1
